Literature values in patent US20110251195A1, “ADRB2 GENE PO[…] INTRAOCULAR PRESSURE RESPONSE TO TOPICAL BETA-BLOCKERS” (Marshfield Clinic, priority 2008, published 2011).

System: ADRB2 gene product (Gln27 / Glu27)
Conditions: Glu27 versus Gln27 ADRB2 variant

Question: For `CC(C)NCC(O)c1ccc(O)c(O)c1` (stereo not shown) [isoprenaline], which “fold greater isoprenaline concentration necessary to down-regulate Glu27 to the same extent as Gln27” value is on record?
Answer: Its value is 60 fold.
